pIC50: −log10 of the molar value. Values joined by “and” are separate entries in the source; they are usually repeats but may differ in a detail not shown here. Equal values may be shown once. Read-outs that look alike come from different tables or passages of the source.
Legend:
[1] = Part B clinical DDI: plasma pharmacokinetics of daprodustat and predominant metabolites with or without steady-state trimethoprim; assay type: in vivo, human; conditions: for AUC(0-t) / AUC(0-inf) / Cmax: geometric LS mean (%CV)
Experimental: For Part B, all subjects were administered daprodustat on Day 1 with pharmacokinetic blood sampling over the next 48 h. Starting the morning of Day 3, all subjects were administered 200‐mg trimethoprim twice‐daily for 3 days (i.e., through Day 5). On Day 6 subjects were administered concomitantly daprodustat with 200 mg trimethoprim in the morning, with pharmacokinetic blood sampling occurring over the next 48 h. Trimethoprim continued to be administered at 12 h postdosing on Day 6, and twice daily on Day 7.
Blood samples for PK analyses were collected on Day 1 and Day 6 predose and at 0.25, 0.5, 1, 2, 3, 4, 5, 6, 8, 12, 18, 24, and 48 h postdose.
No formal hypothesis was tested in this study.

[2] = Part A clinical DDI: plasma pharmacokinetics of pioglitazone and rosuvastatin with or without 100 mg daprodustat; conditions: both, human, in vivo; for half-life: median elimination half-life, alone
Experimental: • Part A was an open‐label, randomized, single oral dose, two‐way cross‐over design that assessed the effects of a single, oral dose of 100 mg daprodustat on the pharmacokinetics of a single, oral dose of 15 mg pioglitazone and a single, oral dose of 10 mg rosuvastatin administered as a cocktail in healthy male and female subjects; • Part B was an open‐label, single sequence, two‐way cross‐over design to assess the effect of steady‐state trimethoprim (200 mg administered orally twice daily for 3 days) on the pharmacokinetics of a single, oral dose of 25 mg daprodustat in healthy, adult male and female subjects.
For Part A, for each of the two treatment periods, subjects remained in the Unit until 48 h postdosing, and were discharged following the last postdose assessment, if no clinically significant abnormalities were noted. Treatment periods were separated by at least a 7‐day washout. […]
Plasma analysis was performed under the management of Bioanalytical Science and Toxicokinetics, Drug Metabolism and Pharmacokinetics (DMPK), and GlaxoSmithKline (GSK). […] Samples were shipped frozen to PPD (Middleton, WI) where plasma samples were analyzed for rosuvastatin, pioglitazone, or daprodustat and predominant metabolites (GSK2391220 (M2), GSK2531403 (M3), GSK2487818 (M4), GSK2506102 (M5), GSK2531398 (M6), and GSK2531401 (M13)).
Pharmacokinetic analysis was performed using Phoenix WinNonLin® 6.3 (A Certara Company, Princeton, N.J). Pharmacokinetic parameters were determined from concentration–time data for pioglitazone, rosuvastatin, daprodustat, and predominant metabolites of daprodustat using standard noncompartmental methods.
Following loge transformation, AUC0‐∞ [defaulting to AUC0‐t if AUC0‐∞ could not be consistently determined] and C max of pioglitazone and rosuvastatin (for Part A) or daprodustat and six predominant metabolites (for Part B) were separately analyzed using a mixed‐effects model with fixed‐effect terms for treatment and period, and subject as a random effect in the model. […]

other CYPs = conditions: human liver microsomes, up to 100 μmol/L; earlier in vitro studies, no reference given; cited from earlier work
[3] = Tolerability (adverse events), Parts A and B; assay type: in vivo, human
Excerpt: Tolerability measures included adverse events (AEs), serious adverse events (SAEs), clinical laboratory findings, vital signs, and concurrent medication assessments. An AE was defined as any untoward medical occurrence in a subject or clinical investigation subject, temporally associated with the use of an investigational product, whether or not considered related to the investigational product. […] The investigator or site staff was responsible for detecting, documenting, and reporting events that met the definition of an AE or SAE.

OATP1B1 = conditions: read-out: IC50 for inhibition of OATP1B1-mediated transport; in vitro transporter assays; earlier studies, no reference given; cited from earlier work
CYP2C8 = conditions: read-out: IC50 for inhibition of CYP2C8; human liver microsomes; earlier in vitro studies, no reference given; cited from earlier work
[4] = coadministration of gemfibrozil, strong CYP2C8 inhibitor; ref Johnson et al. 2013; cited from earlier work
hemoglobin levels = tested on: hemoglobin levels; design: method as in Holdstock et al. 2016a; conditions: ref Holdstock et al. 2016a, cited from earlier work
[5] = design: method as in Deng et al. 2005; conditions: pioglitazone with gemfibrozil, strong CYP2C8 inhibitor; ref Deng et al. 2005; cited from earlier work
[6] = 25 mg daprodustat + trimethoprim vs daprodustat alone
[7] = test:reference (with vs without trimethoprim)
[8] = Part B, Regimen C (n = 20) 25 mg daprodustat, Regimen D (n = 19) 25 mg daprodustat + 200 mg trimethoprim BID for 5 days

O=C(O)CNC(=O)C1C(=O)N(C2CCCCC2)C(=O)N(C2CCCCC2)C1=O [daprodustat]
fold increase in AUC with trimethoprim coadministration [1, 6]: 1.48 fold | fold increase in Cmax with trimethoprim coadministration [1, 6]: 1.28 fold | increase in plasma AUC with trimethoprim coadministration [1, 6]: 48% | increase in plasma Cmax with trimethoprim coadministration [1, 6]: 28% | AUC(0-t) ([1]; both sexes, human, oral, reference: 25 mg daprodustat alone, plasma, read-out: AUC0-t, Reference): 936 ng·h/mL | AUC(0-inf) ([1]; both sexes, human, oral, reference: 25 mg daprodustat alone, plasma, read-out: AUC0-∞, Reference): 937 ng·h/mL | Cmax ([1]; both sexes, human, oral, reference: 25 mg daprodustat alone, plasma, read-out: Cmax, Reference): 442 ng/mL | AUC(0-t) ([1]; both sexes, human, oral, test: two 100 mg trimethoprim tablets (steady state) + 25 mg daprodustat, plasma, read-out: AUC0-t, Test): 1370 ng·h/mL | AUC(0-inf) ([1]; both sexes, human, oral, test: two 100 mg trimethoprim tablets (steady state) + 25 mg daprodustat, plasma, read-out: AUC0-∞, Test): 1370 ng·h/mL | Cmax ([1]; both sexes, human, oral, test: two 100 mg trimethoprim tablets (steady state) + 25 mg daprodustat, plasma, read-out: Cmax, Test): 560 ng/mL | half-life ([1]; both sexes, human, plasma, oral, 25 mg daprodustat alone, read-out: median elimination half-life, alone (converted)): 3.06 h | time of observed peak plasma levels ([1]; both treatment periods (with and without steady-state trimethoprim)): 1 h | AUC0-t, Geometric LS mean ratio (90% CI) [1, 7]: 1.48 (1.39, 1.59) | AUC0-∞, Geometric LS mean ratio (90% CI) [1, 7]: 1.48 (1.39, 1.59) | Cmax, Geometric LS mean ratio (90% CI) [1, 7]: 1.28 (1.09, 1.51) | Cmax ([2]; 100 mg): ~4.5 µM | inhibition of other CYPs (other CYPs): no inhibition was observed | Aphthous stomatitis [3, 8]: 0 n (%) | Catheter site phlebitis [3, 8]: 0 n (%) | Constipation [3, 8]: 1 (5) n (%) | Diarrhea [3, 8]: 2 (10%) n (%) and 2 (10) n (%) | Nausea [3, 8]: 0 n (%) | Rhinitis [3, 8]: 0 n (%) | Tongue coated [3, 8]: 0 n (%) | Vomiting [3, 8]: 1 (5) n (%) | Vulvovaginal mycotic infection [3, 8]: 0 n (%) | proportion of subjects reporting AEs ([3]; per regimen, Parts A and B, healthy subjects): 10% | pIC50 (OATP1B1): 5.22 | pIC50 (CYP2C8): 4.68 | fold increase in daprodustat AUC with gemfibrozil [4]: 19 fold | fold increase in daprodustat Cmax with gemfibrozil [4]: 4 fold | mean hemoglobin levels (hemoglobin levels; HDD subjects switched from ESA treatment, 5 mg once daily, 4-week treatment period): maintained mean hemoglobin levels | mean increase in hemoglobin (hemoglobin levels; NDD patients naïve to ESA treatment, oral 5 mg once daily, over 4 weeks): 1 gm/dL

CCc1ccc(CCOc2ccc(CC3SC(=O)NC3=O)cc2)nc1 (stereo not drawn) [pioglitazone]
half-life [2]: 7.01 h | fold increase in AUC0-∞ with gemfibrozil [5]: 3.4 fold

CC(C)c1nc(N(C)S(C)(=O)=O)nc(-c2ccc(F)cc2)c1/C=C/[C@@H](O)C[C@@H](O)CC(=O)O [rosuvastatin]
half-life [2]: 15.6 h
